In the CheMixHub ionic liquid set:

Test: xn = mol fraction of the nth substance listed

CC(=O)[O-].CCCC[N+](CCCC)(CCCC)CCCC + CCCOCC(C)O
electrical conductivity [S/m], 101 kPa
Details | x1 = 0.006949 | x1 = 0.008744 | x1 = 0.02598 | x1 = 0.03298 | x1 = 0.06584 | x1 = 0.09163 | x1 = 0.1232 | x1 = 0.1599 | x1 = 0.2312
248.15 K | 0.000652 | 0.000811 | 0.00218 | 0.00267 | 0.00439 | 0.00514 | 0.00547 | 0.00531 | 0.0042
258.15 K | 0.00115 | 0.00143 | 0.00399 | 0.00493 | 0.00847 | 0.01022 | 0.01125 | 0.01128 | 0.00942
268.15 K | 0.00182 | 0.00229 | 0.00661 | 0.00825 | 0.01473 | 0.01821 | 0.02062 | 0.02133 | 0.01883
278.15 K | 0.00269 | 0.0034 | 0.01016 | 0.01277 | 0.02353 | 0.02971 | 0.03448 | 0.03666 | 0.03401
288.15 K | 0.00374 | 0.00478 | 0.01461 | 0.01849 | 0.03502 | 0.04505 | 0.05341 | 0.05816 | 0.05632
298.15 K | 0.00498 | 0.00635 | 0.01995 | 0.02547 | 0.04947 | 0.06468 | 0.07808 | 0.08671 | 0.08711
308.15 K | 0.00637 | 0.00816 | 0.02625 | 0.03367 | 0.06676 | 0.08851 | 0.1086 | 0.1227 | 0.1274
313.15 K | 0.0071 | 0.00913 | 0.02965 | 0.03815 | 0.07641 | 0.1011 | 0.126 | 0.1436 | 0.1513

CC(=O)[O-].CCCC[N+]1(C)CCCC1 + O
298.15 K, 101.3 kPa, frequency 100 MHz
Details | electrical conductivity [S/m]
x1 = 0.017 | 2.62
x1 = 0.163 | 0.985

O=S(=O)([O-])[O-].[Na+].[Na+] + CCCCCCCCCCCC[N+](C)(C)C.[Br-] + O
298.15 K, 101 kPa
Details | electrical conductivity [S/m]
x2 = 0, x1 = 0.0001802 | 0.219
x2 = 0, x1 = 0.001799 | 1.527
x2 = 1.98e-06, x1 = 0.0001802 | 0.2192
x2 = 4.2e-06, x1 = 0.001799 | 1.523
x2 = 6.31e-06, x1 = 0.0001802 | 0.2208
x2 = 1.064e-05, x1 = 0.0001802 | 0.2225
x2 = 1.241e-05, x1 = 0.001799 | 1.523
x2 = 1.516e-05, x1 = 0.0001802 | 0.2243
x2 = 2.061e-05, x1 = 0.001799 | 1.525
x2 = 2.201e-05, x1 = 0.0001802 | 0.2272
x2 = 2.882e-05, x1 = 0.001799 | 1.526
x2 = 3.067e-05, x1 = 0.0001802 | 0.231
x2 = 3.667e-05, x1 = 0.001799 | 1.528
x2 = 3.951e-05, x1 = 0.0001802 | 0.2348
x2 = 4.451e-05, x1 = 0.001799 | 1.531
x2 = 5.088e-05, x1 = 0.0001802 | 0.2397
x2 = 5.235e-05, x1 = 0.001799 | 1.533
x2 = 6.188e-05, x1 = 0.0001802 | 0.2448
x2 = 6.221e-05, x1 = 0.001799 | 1.536
x2 = 6.932e-05, x1 = 0.001799 | 1.538
x2 = 7.271e-05, x1 = 0.0001801 | 0.2498
x2 = 7.662e-05, x1 = 0.001799 | 1.54
x2 = 8.353e-05, x1 = 0.0001801 | 0.2543
x2 = 8.391e-05, x1 = 0.001799 | 1.542
x2 = 9.048e-05, x1 = 0.001799 | 1.544
x2 = 9.435e-05, x1 = 0.0001801 | 0.2592
x2 = 9.741e-05, x1 = 0.001799 | 1.546
x2 = 0.0001038, x1 = 0.001799 | 1.548
x2 = 0.0001048, x1 = 0.0001801 | 0.2637
x2 = 0.0001104, x1 = 0.001799 | 1.55
x2 = 0.0001153, x1 = 0.0001801 | 0.2682
x2 = 0.0001173, x1 = 0.001799 | 1.553
x2 = 0.0001239, x1 = 0.001799 | 1.556
x2 = 0.0001257, x1 = 0.0001801 | 0.2729
x2 = 0.0001315, x1 = 0.001799 | 1.56
x2 = 0.0001364, x1 = 0.0001801 | 0.2774
x2 = 0.0001404, x1 = 0.001799 | 1.563
x2 = 0.0001467, x1 = 0.0001801 | 0.2821
x2 = 0.0001478, x1 = 0.001798 | 1.565
x2 = 0.0001549, x1 = 0.001798 | 1.567
x2 = 0.0001569, x1 = 0.0001801 | 0.2866
x2 = 0.0001623, x1 = 0.001798 | 1.569
x2 = 0.0001672, x1 = 0.0001801 | 0.2912
x2 = 0.0001702, x1 = 0.001798 | 1.571
x2 = 0.0001775, x1 = 0.0001801 | 0.2956
x2 = 0.0001777, x1 = 0.001798 | 1.573
x2 = 0.0001851, x1 = 0.001798 | 1.575
x2 = 0.0001876, x1 = 0.0001801 | 0.3
x2 = 0.000193, x1 = 0.001798 | 1.577
x2 = 0.0001975, x1 = 0.0001801 | 0.3042
x2 = 0.0001997, x1 = 0.001798 | 1.579
x2 = 0.0002074, x1 = 0.001798 | 1.58
x2 = 0.0002076, x1 = 0.0001801 | 0.308
x2 = 0.000215, x1 = 0.001798 | 1.582
x2 = 0.0002175, x1 = 0.0001801 | 0.311
x2 = 0.000222, x1 = 0.001798 | 1.584
x2 = 0.0002275, x1 = 0.0001801 | 0.3132
x2 = 0.0002287, x1 = 0.001798 | 1.586
x2 = 0.0002358, x1 = 0.001798 | 1.588
x2 = 0.0002368, x1 = 0.0001801 | 0.3149
x2 = 0.0002431, x1 = 0.001798 | 1.589
x2 = 0.0002466, x1 = 0.0001801 | 0.3165
x2 = 0.0002504, x1 = 0.001798 | 1.591
x2 = 0.0002565, x1 = 0.0001801 | 0.3178
x2 = 0.0002612, x1 = 0.001798 | 1.594
x2 = 0.000266, x1 = 0.0001801 | 0.3191
x2 = 0.0002739, x1 = 0.001798 | 1.597
x2 = 0.0002776, x1 = 0.0001801 | 0.3205
x2 = 0.0002909, x1 = 0.0001801 | 0.322
x2 = 0.0003061, x1 = 0.0001801 | 0.3238
x2 = 0.0003232, x1 = 0.0001801 | 0.3257
x2 = 0.0003423, x1 = 0.0001801 | 0.3278
x2 = 0.0003636, x1 = 0.0001801 | 0.3305
x2 = 0.0003892, x1 = 0.0001801 | 0.3335

CCCCCCCCCCCCCC[P+](CCCCCC)(CCCCCC)CCCCCC.c1nnn[n-]1 + CCCCCC[n+]1ccn(C)c1.O=S(=O)([N-]S(=O)(=O)C(F)(F)F)C(F)(F)F
100 kPa
Details | viscosity [mPa·s]
283.15 K, x2 = 0.102 | 1711
283.15 K, x2 = 0.299 | 1361
283.15 K, x2 = 0.6 | 662
283.15 K, x2 = 0.8 | 342
288.15 K, x2 = 0.102 | 1155
288.15 K, x2 = 0.201 | 1055
288.15 K, x2 = 0.8 | 247
288.15 K, x2 = 0.9 | 158
298.15 K, x2 = 0.102 | 567
298.15 K, x2 = 0.6 | 245
303.15 K, x2 = 0.201 | 382
303.15 K, x2 = 0.701 | 145
308.15 K, x2 = 0.201 | 286
308.15 K, x2 = 0.299 | 253
308.15 K, x2 = 0.8 | 86
308.15 K, x2 = 0.9 | 59
313.15 K, x2 = 0.6 | 112
318.15 K, x2 = 0.349 | 141

CCCC[N+](C)(C)C.O=S(=O)([N-]S(=O)(=O)C(F)(F)F)C(F)(F)F + CC(O)C(C)O
Details | viscosity [mPa·s]
328.15 K, 101 kPa, x2 = 0 | 30

C[C@@H](O)[C@H](N)C(=O)O + CCCCCCCCCCCCCCCC[n+]1ccccc1.[Cl-] + O
308.15 K, 101 kPa
Details | electrical conductivity [S/m]
x1 = 2.018e-05, x2 = 0 | 0.000218
x1 = 0.0002, x2 = 0 | 7.7e-05
x1 = 0.0009182, x2 = 0 | 0.000219

C[S+](C)C.O=S(=O)([N-]S(=O)(=O)C(F)(F)F)C(F)(F)F + O=C1CCCO1
Details | electrical conductivity [S/m]
298.15 K, 101 kPa, x2 = 0.92 | 1.57

CC(C)=O + CCCC[n+]1ccn(C)c1.O=S(=O)([N-]S(=O)(=O)C(F)(F)F)C(F)(F)F
296.35 K, 100 kPa, frequency 0.01 MHz
Details | electrical conductivity [S/m]
x2 = 0.01616 | 1.1
x2 = 0.0257 | 2.71
x2 = 0.0419 | 4.22
x2 = 0.07374 | 5.7
x2 = 0.1478 | 4.72

COP(=O)([O-])OC.Cn1cc[n+](C)c1 + CC(C)O
101 kPa
Details | viscosity [mPa·s]
293.15 K, x2 = 0 | 416
293.15 K, x2 = 0.0999 | 357
298.15 K, x2 = 0.2032 | 183
298.15 K, x2 = 0.5002 | 53.3
298.15 K, x2 = 0.7009 | 17.98
303.15 K, x2 = 0.5002 | 43.28
308.15 K, x2 = 0.7009 | 13.26
308.15 K, x2 = 0.9013 | 3.819
313.15 K, x2 = 0 | 119.2
313.15 K, x2 = 0.0999 | 106.6
313.15 K, x2 = 0.2032 | 82.2
313.15 K, x2 = 0.301 | 63.1
318.15 K, x2 = 0.2032 | 66.1
318.15 K, x2 = 0.5002 | 25.15
318.15 K, x2 = 0.7009 | 10.13
323.15 K, x2 = 0.5002 | 21.5
323.15 K, x2 = 0.9013 | 2.638
